# Measured values taken from patent US20150105252A1, “SUBSTITUTED PYRAZOLES AS HERBICIDES” (E I DU PONT DE NEMOURS AND COMPANY, priority 2013, published 2015).
# Tests used:
# crabgrass, large [1] = test: Test A preemergence; assay type: in vivo, Digitaria sanguinalis; details: preemergence; for Crabgrass, Large plant response rating (0 to 100 scale): 125 g ai/ha, visual injury approx. 10 days after treatment; for Crabgrass, Large plant response rating: 500 g ai/ha, visual injury after approx. 10 days, 0 to 100 scale (0 no effect, 100 complete control)
# Summary of the method: (§1)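 Injury readout: eye-scored versus untreated controls, 0 to 100. Exposure period: ~10 days, greenhouse. Application: soil-directed spray over sown seed (pre) or spray on seedlings 2–10 cm tall with one or two leaves (post), compound carried in non-phytotoxic solvent including surfactant.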
# velvetleaf = test: Test A preemergence; assay type: in vivo, Abutilon theophrasti; details: preemergence; for Velvetleaf plant response rating (0 to 100 scale): 125 g ai/ha, visual injury approx. 10 days after treatment; for Velvetleaf plant response rating: 500 g ai/ha, visual injury after approx. 10 days, 0 to 100 scale (0 no effect, 100 complete control)
# Summary of the method: as §1
# wheat [2] = test: Test A preemergence; assay type: in vivo, Triticum aestivum; details: preemergence; for Wheat plant response rating (0 to 100 scale): 125 g ai/ha, visual injury approx. 10 days after treatment; for Wheat plant response rating: 500 g ai/ha, visual injury after approx. 10 days, 0 to 100 scale (0 no effect, 100 complete control)
# Summary of the method: as §1
# foxtail, giant [3] = test: Test A postemergence; assay type: in vivo, Setaria faberii
# Summary of the method: as §1
# sedge, umbrella = test: Test B flood; assay type: in vivo, Cyperus difformis; details: 250 g ai/ha, visual rating on 0 to 100 scale (0 no effect, 100 complete control), 13 to 15 days
# Summary of the method: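 Greenhouse assay lasting 13 to 15 days. Treatment was into water flooding pots 3 cm deep, at the 2-leaf stage, with that level sustained afterwards. Scores compare treated with control plants visually, 100 denoting complete control and 0 no effect; a dash marks no test result.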
# wheat [4] = test: Test C preemergence; assay type: in vivo, Triticum aestivum; details: preemergence; for Plant response rating, Wheat: 125 g ai/ha, scale 0 to 100, 0 = no effect, 100 = complete control
# Summary of the method: (§2)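 Visual rating, 0–100 scale (0 no effect, 100 complete control), vs untreated controls after 13–15 d greenhouse. Pre: seeds in loam/sand, treated at sowing. Post: plants in peat-based mix, 1- to 4-leaf (2–18 cm). Solvent + surfactant formulation, non-phytotoxic.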
# corn = test: Test C preemergence; assay type: in vivo, Zea mays; details: preemergence; for Plant response rating, Corn: 125 g ai/ha, scale 0 to 100, 0 = no effect, 100 = complete control
# Summary of the method: as §2
# johnsongrass = test: Test C preemergence; assay type: in vivo, Sorghum halepense; details: preemergence; for Plant response rating, Johnsongrass: 125 g ai/ha, scale 0 to 100, 0 = no effect, 100 = complete control
# Summary of the method: as §2
# ragweed = test: Test C preemergence; assay type: in vivo, Ambrosia elation; details: preemergence; for Plant response rating, Ragweed: 125 g ai/ha, scale 0 to 100, 0 = no effect, 100 = complete control
# Summary of the method: as §2
# blackgrass = test: Test C postemergence; assay type: in vivo, Alopecurus myosuroides; details: for Plant response rating (scale of 0 to 100 where 0 is no effect and 100 is complete control), Blackgrass: Postemergence, 31 g ai/ha, visually evaluated after 13 to 15 days; for Blackgrass plant response rating / Plant response rating, Blackgrass: postemergence; for Blackgrass plant response rating: 62 g ai/ha, scale 0 to 100
# Summary of the method: as §2
# crabgrass, large [5] = test: Test C postemergence; assay type: in vivo, Digitaria sanguinalis; details: for Plant response rating (scale of 0 to 100 where 0 is no effect and 100 is complete control), Crabgrass, Large: Postemergence, 31 g ai/ha, visually evaluated after 13 to 15 days; for Crabgrass, Large plant response rating / Plant response rating, Crabgrass, Large: postemergence; for Crabgrass, Large plant response rating: 62 g ai/ha, scale 0 to 100
# Summary of the method: as §2
# foxtail, giant [6] = test: Test C postemergence; assay type: in vivo, Setaria faberii; details: for Plant response rating (scale of 0 to 100 where 0 is no effect and 100 is complete control), Foxtail, Giant: Postemergence, 31 g ai/ha, visually evaluated after 13 to 15 days; for Foxtail, Giant plant response rating / Plant response rating, Foxtail, Giant: postemergence; for Foxtail, Giant plant response rating: 62 g ai/ha, scale 0 to 100
# Summary of the method: as §2
# waterhemp = test: Test C postemergence; assay type: in vivo, Amaranthus rudis; details: postemergence; for Plant response rating, Waterhemp: 250 g ai/ha, scale 0 to 100 (0 no effect, 100 complete control); for Waterhemp plant response rating: scale 0 to 100
# Summary of the method: as §2
# [7] = Postemergence, 500 g ai/ha, 0 to 100 scale (0 no effect, 100 complete control)
# [8] = postemergence, 125 g ai/ha, about 10 days, visual rating on 0 to 100 scale (0 no effect, 100 complete control)
# [9] = 31 g ai/ha, visual rating, scale 0 to 100 (0 no effect, 100 complete control), 13 to 15 days
# [10] = 62 g ai/ha, scale 0 to 100 (0 no effect, 100 complete control), 13 to 15 days
# [11] = 250 g ai/ha, scale 0 to 100, 0 is no effect, 100 is complete control
# [12] = 250 g ai/ha, scale 0 to 100 (0 no effect, 100 complete control)
# [13] = 125 g ai/ha, scale 0 to 100, 0 no effect, 100 complete control
Structure (SMILES),"Crabgrass, Large plant response rating (0 to 100 scale) (crabgrass, large [1])","Crabgrass, Large plant response rating (crabgrass, large [1])",Velvetleaf plant response rating (0 to 100 scale) (velvetleaf),Velvetleaf plant response rating (velvetleaf),Wheat plant response rating (0 to 100 scale) (wheat [2]),Wheat plant response rating (wheat [2]),"Foxtail, Giant plant response rating (foxtail, giant [3]; [7])","Foxtail, Giant plant response rating (foxtail, giant [3]; [8])","Plant response rating, Sedge, Umbrella (sedge, umbrella)",Wheat plant response rating (wheat [4]; [9]),Wheat plant response rating (wheat [4]; [10]),"Plant response rating, Wheat (wheat [4]; 13 to 15 days)",Wheat plant response rating (wheat [4]; [11]),Corn plant response rating (corn; [9]),Corn plant response rating (corn; [10]),"Plant response rating, Corn (corn; 13 to 15 days)",Corn plant response rating (corn; [11]),Johnsongrass plant response rating (johnsongrass; [9]),Johnsongrass plant response rating (johnsongrass; [10]),"Plant response rating, Johnsongrass (johnsongrass; 13 to 15 days)",also measured
CCOc1cc(C(=O)NOC(C)C)nn1Cc1ccnc(C(F)(F)F)c1 [Compound 153],100,100,90,100,100,100,100,100,95,15,85,90,90,10,50,95,98,5,35,75,"Johnsongrass plant response rating (johnsongrass; [11]): 95; Ragweed plant response rating (ragweed; [9]): 50; Ragweed plant response rating (ragweed; [10]): 95; Plant response rating, Ragweed (ragweed; 13 to 15 days): 98; Ragweed plant response rating (ragweed; [11]): 98; Plant response rating (scale of 0 to 100 where 0 is no effect and 100 is complete control), Blackgrass (blackgrass): 0; Blackgrass plant response rating (blackgrass): 5; Plant response rating, Blackgrass (blackgrass; [12]): 5; Plant response rating, Blackgrass (blackgrass; [13]): 5; Plant response rating (scale of 0 to 100 where 0 is no effect and 100 is complete control), Crabgrass, Large (crabgrass, large [5]): 5; Crabgrass, Large plant response rating (crabgrass, large [5]): 10; Plant response rating, Crabgrass, Large (crabgrass, large [5]; [12]): 45; Plant response rating, Crabgrass, Large (crabgrass, large [5]; [13]): 15; Plant response rating (scale of 0 to 100 where 0 is no effect and 100 is complete control), Foxtail, Giant (foxtail, giant [6]): 5; Foxtail, Giant plant response rating (foxtail, giant [6]): 5; Plant response rating, Foxtail, Giant (foxtail, giant [6]; [12]): 65; Plant response rating, Foxtail, Giant (foxtail, giant [6]; [13]): 10; Plant response rating, Waterhemp (waterhemp): 65; Waterhemp plant response rating (waterhemp): 40"
CCNC(=O)c1cc(CC)n(Cc2cc(C(F)(F)F)nn2C)n1 [Compound 154],100,100,90,100,0,100,100,100,95,0,5,50,90,0,5,40,95,5,5,55,"Johnsongrass plant response rating (johnsongrass; [11]): 85; Ragweed plant response rating (ragweed; [9]): 25; Ragweed plant response rating (ragweed; [10]): 80; Plant response rating, Ragweed (ragweed; 13 to 15 days): 98; Ragweed plant response rating (ragweed; [11]): 98; Plant response rating (scale of 0 to 100 where 0 is no effect and 100 is complete control), Blackgrass (blackgrass): 0; Blackgrass plant response rating (blackgrass): 0; Plant response rating, Blackgrass (blackgrass; [12]): 40; Plant response rating, Blackgrass (blackgrass; [13]): 10; Plant response rating (scale of 0 to 100 where 0 is no effect and 100 is complete control), Crabgrass, Large (crabgrass, large [5]): 5; Crabgrass, Large plant response rating (crabgrass, large [5]): 5; Plant response rating, Crabgrass, Large (crabgrass, large [5]; [12]): 10; Plant response rating, Crabgrass, Large (crabgrass, large [5]; [13]): 5; Plant response rating (scale of 0 to 100 where 0 is no effect and 100 is complete control), Foxtail, Giant (foxtail, giant [6]): 5; Foxtail, Giant plant response rating (foxtail, giant [6]): 5; Plant response rating, Foxtail, Giant (foxtail, giant [6]; [12]): 10; Plant response rating, Foxtail, Giant (foxtail, giant [6]; [13]): 5; Plant response rating, Waterhemp (waterhemp): 85; Waterhemp plant response rating (waterhemp): 65"
CCCNC(=O)c1cc(CCF)n(Cc2ccnc(C(F)(F)F)c2)n1 [Compound 177],100,100,40,100,10,100,100,100,95,10,10,50,90,5,40,90,98,10,70,100,"Johnsongrass plant response rating (johnsongrass; [11]): 98; Ragweed plant response rating (ragweed; [9]): 75; Ragweed plant response rating (ragweed; [10]): 85; Plant response rating, Ragweed (ragweed; 13 to 15 days): 98; Ragweed plant response rating (ragweed; [11]): 98; Plant response rating (scale of 0 to 100 where 0 is no effect and 100 is complete control), Blackgrass (blackgrass): 20; Blackgrass plant response rating (blackgrass): 15; Plant response rating, Blackgrass (blackgrass; [12]): 35; Plant response rating, Blackgrass (blackgrass; [13]): 20; Plant response rating (scale of 0 to 100 where 0 is no effect and 100 is complete control), Crabgrass, Large (crabgrass, large [5]): 5; Crabgrass, Large plant response rating (crabgrass, large [5]): 5; Plant response rating, Crabgrass, Large (crabgrass, large [5]; [12]): 10; Plant response rating, Crabgrass, Large (crabgrass, large [5]; [13]): 5; Plant response rating (scale of 0 to 100 where 0 is no effect and 100 is complete control), Foxtail, Giant (foxtail, giant [6]): 5; Foxtail, Giant plant response rating (foxtail, giant [6]): 10; Plant response rating, Foxtail, Giant (foxtail, giant [6]; [12]): 45; Plant response rating, Foxtail, Giant (foxtail, giant [6]; [13]): 30; Plant response rating, Waterhemp (waterhemp): 65; Waterhemp plant response rating (waterhemp): 75"
CCCc1cc(C(=O)NC(C)C)nn1Cc1ccnc(C(F)(F)F)c1 [Compound 186],100,100,100,100,90,100,90,90,80,80,90,90,90,55,85,95,98,75,98,100,"Johnsongrass plant response rating (johnsongrass; [11]): 100; Ragweed plant response rating (ragweed; [9]): 75; Ragweed plant response rating (ragweed; [10]): 100; Plant response rating, Ragweed (ragweed; 13 to 15 days): 95; Ragweed plant response rating (ragweed; [11]): 98; Plant response rating (scale of 0 to 100 where 0 is no effect and 100 is complete control), Blackgrass (blackgrass): 5; Blackgrass plant response rating (blackgrass): 10; Plant response rating, Blackgrass (blackgrass; [12]): 60; Plant response rating, Blackgrass (blackgrass; [13]): 10; Plant response rating (scale of 0 to 100 where 0 is no effect and 100 is complete control), Crabgrass, Large (crabgrass, large [5]): 5; Crabgrass, Large plant response rating (crabgrass, large [5]): 5; Plant response rating, Crabgrass, Large (crabgrass, large [5]; [12]): 80; Plant response rating, Crabgrass, Large (crabgrass, large [5]; [13]): 20; Plant response rating (scale of 0 to 100 where 0 is no effect and 100 is complete control), Foxtail, Giant (foxtail, giant [6]): 5; Foxtail, Giant plant response rating (foxtail, giant [6]): 30; Plant response rating, Foxtail, Giant (foxtail, giant [6]; [12]): 75; Plant response rating, Foxtail, Giant (foxtail, giant [6]; [13]): 60; Plant response rating, Waterhemp (waterhemp): 90; Waterhemp plant response rating (waterhemp): 60"
